# Measured values: ChEMBL document CHEMBL1201862, “PubChem BioAssay data set” (2004)
#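 Each compound was tested at five concentrations against cells in 96-well plates for 48 hours. GI50 = concentration required for 50% inhibition of growth.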 Calls of active or inactive are those of the source. Cut-off read from the data, not from the text of the source: active = GI50 up to about 1.1 µM and inactive = higher.
# Experiments:
# Assay in all cases: inhibition of tumour cell growth, NCI panel, 48 h
# KM12 = system: KM12
# NCI/ADR-RES = system: NCI/ADR-RES
# SNB-75 = system: SNB-75
# MOLT-4 = system: MOLT-4
# A549 = system: A549
# MDA-N = system: MDA-N
# UACC-62 = system: UACC-62
# SK-MEL-2 = system: SK-MEL-2
# MDA-MB-231 = system: MDA-MB-231
# COLO 205 = system: COLO 205
# T47D = system: T47D
# 786-0 = system: 786-0
# SF-295 = system: SF-295
# SN12C = system: SN12C
# NCI-H23 = system: NCI-H23
# TK-10 = system: TK-10
# MCF7 = system: MCF7
# RXF 393 = system: RXF 393
# EKVX = system: EKVX
# HCC 2998 = system: HCC 2998
# OVCAR-5 = system: OVCAR-5
# SW-620 = system: SW-620
# NCI-H522 = system: NCI-H522
# HOP-62 = system: HOP-62
# Malme-3M = system: Malme-3M
# K562 = system: K562
# HOP-92 = system: HOP-92
# HT-29 = system: HT-29
# RPMI-8226 = system: RPMI-8226
# SF-268 = system: SF-268
# MDA-MB-435 = system: MDA-MB-435
# A498 = system: A498
# Hs-578T = system: Hs-578T
# OVCAR-4 = system: OVCAR-4
# SK-MEL-28 = system: SK-MEL-28
# DU-145 = system: DU-145
# SK-MEL-5 = system: SK-MEL-5
# UACC-257 = system: UACC-257
# HCT-15 = system: HCT-15
# OVCAR-8 = system: OVCAR-8
# CCRF-CEM = system: CCRF-CEM
# OVCAR-3 = system: OVCAR-3
# LOX IMVI = system: LOX IMVI
# SF-539 = system: SF-539
# NCI-H226 = system: NCI-H226
# HL-60 = system: HL-60
# IGROV-1 = system: IGROV-1
# SNB-19 = system: SNB-19
# SK-OV-3 = system: SK-OV-3
# SR = system: SR
# M14 = system: M14
# HCT-116 = system: HCT-116
# ACHN = system: ACHN
# CAKI-1 = system: CAKI-1
# UO-31 = system: UO-31
# U-251 = system: U-251
# NCI-H460 = system: NCI-H460
# PC-3 = system: PC-3
# BT-549 = system: BT-549
smiles,measurement,setting,value
CCC(C)C(N)C(=O)N/N=C\c1c2c(nc3ccccc13)-c1cc3c(c(=O)n1C2)COC(=O)[C@]3(O)CC (some centres not stated),GI50,KM12,925 nM (active)
same,GI50,NCI/ADR-RES,232 nM (active)
same,GI50,SNB-75,25.6 nM (active)
same,GI50,MOLT-4,< 10 nM (active)
same,GI50,A549,173 nM (active)
same,GI50,MDA-N,460 nM (active)
same,GI50,UACC-62,< 10 nM (active)
same,GI50,SK-MEL-2,1080 nM (active)
same,GI50,MDA-MB-231,2370 nM (inactive)
same,GI50,COLO 205,2950 nM (inactive)
same,GI50,T47D,< 10 nM (active)
same,GI50,786-0,36.1 nM (active)
same,GI50,SF-295,43 nM (active)
same,GI50,SN12C,15.5 nM (active)
same,GI50,NCI-H23,11.2 nM (active)
same,GI50,TK-10,4020 nM (inactive)
same,GI50,MCF7,< 10 nM (active)
same,GI50,RXF 393,< 28.4 nM (active)
same,GI50,EKVX,1890 nM (inactive)
same,GI50,HCC 2998,360 nM (active)
same,GI50,OVCAR-5,1520 nM (inactive)
same,GI50,SW-620,127 nM (active)
same,GI50,NCI-H522,< 48 nM (active)
same,GI50,HOP-62,11.3 nM (active)
same,GI50,Malme-3M,438 nM (active)
same,GI50,K562,63 nM (active)
same,GI50,HOP-92,80.3 nM (active)
same,GI50,HT-29,690 nM (active)
same,GI50,RPMI-8226,142 nM (active)
same,GI50,SF-268,< 10 nM (active)
same,GI50,MDA-MB-435,468 nM (active)
same,GI50,A498,205 nM (active)
same,GI50,Hs-578T,1820 nM (inactive)
same,GI50,OVCAR-4,1430 nM (inactive)
same,GI50,SK-MEL-28,259 nM (active)
same,GI50,DU-145,15.8 nM (active)
same,GI50,SK-MEL-5,59.4 nM (active)
same,GI50,UACC-257,467 nM (active)
same,GI50,HCT-15,356 nM
same,GI50,OVCAR-8,45.3 nM (active)
same,GI50,CCRF-CEM,< 10 nM (active)
same,GI50,OVCAR-3,879 nM (active)
same,GI50,LOX IMVI,13.2 nM (active)
same,GI50,SF-539,< 10 nM (active)
same,GI50,NCI-H226,59.8 nM (active)
same,GI50,HL-60,16.4 nM (active)
same,GI50,IGROV-1,832 nM (active)
same,GI50,SNB-19,< 10 nM (active)
same,GI50,SK-OV-3,52.8 nM (active)
same,GI50,SR,< 10 nM (active)
same,GI50,M14,39 nM (active)
same,GI50,HCT-116,53.6 nM (active)
same,GI50,ACHN,< 11.7 nM (active)
same,GI50,CAKI-1,39.7 nM (active)
same,GI50,UO-31,120 nM (active)
same,GI50,U-251,< 10 nM (active)
same,GI50,NCI-H460,< 13.4 nM (active)
same,GI50,PC-3,387 nM (active)
same,GI50,BT-549,174 nM (active)
COc1cc2c(/C=C3/C(=O)Nc4ccccc43)c(Cl)[nH]c2cc1C,GI50,KM12,32.9 nM (active)
same,GI50,NCI/ADR-RES,26.3 nM (active)
same,GI50,SNB-75,192 nM (active)
same,GI50,MOLT-4,118 nM (active)
same,GI50,A549,61.9 nM (active)
same,GI50,MDA-N,19.1 nM (active)
same,GI50,UACC-62,37.1 nM (active)
same,GI50,SK-MEL-2,82 nM (active)
same,GI50,MDA-MB-231,89.3 nM (active)
same,GI50,COLO 205,55.2 nM (active)
same,GI50,T47D,13700 nM (inactive)
same,GI50,786-0,60.5 nM (active)
same,GI50,SF-295,25.2 nM (active)
same,GI50,SN12C,84.5 nM (active)
same,GI50,NCI-H23,40.7 nM (active)
same,GI50,TK-10,173 nM (active)
same,GI50,MCF7,50.2 nM (active)
same,GI50,RXF 393,311 nM (active)
same,GI50,EKVX,52.1 nM (active)
same,GI50,HCC 2998,86.1 nM (active)
same,GI50,OVCAR-5,129 nM (active)
same,GI50,SW-620,85.5 nM (active)
same,GI50,NCI-H522,44.6 nM (active)
same,GI50,HOP-62,107 nM (active)
same,GI50,K562,60.1 nM (active)
same,GI50,HOP-92,1430 nM (inactive)
same,GI50,HT-29,49.5 nM (active)
same,GI50,RPMI-8226,55.1 nM (active)
same,GI50,SF-268,64.4 nM (active)
same,GI50,MDA-MB-435,14.1 nM (active)
same,GI50,A498,63.2 nM (active)
same,GI50,Hs-578T,42.7 nM (active)
same,GI50,OVCAR-4,52.1 nM (active)
same,GI50,SK-MEL-28,9120 nM (inactive)
same,GI50,DU-145,95.5 nM (active)
same,GI50,SK-MEL-5,46.7 nM (active)
same,GI50,UACC-257,1520 nM (inactive)
same,GI50,HCT-15,40.8 nM
same,GI50,OVCAR-8,86.9 nM (active)
same,GI50,CCRF-CEM,58.3 nM (active)
same,GI50,OVCAR-3,43.4 nM (active)
same,GI50,LOX IMVI,63.1 nM (active)
same,GI50,SF-539,23.4 nM (active)
same,GI50,NCI-H226,373 nM (active)
same,GI50,HL-60,35 nM (active)
same,GI50,IGROV-1,34 nM (active)
same,GI50,SNB-19,48.6 nM (active)
same,GI50,SK-OV-3,31.4 nM (active)
same,GI50,SR,41.4 nM (active)
same,GI50,M14,36.6 nM (active)
same,GI50,HCT-116,59.7 nM (active)
same,GI50,ACHN,92.3 nM (active)
same,GI50,CAKI-1,68.9 nM (active)
same,GI50,UO-31,74.5 nM (active)
same,GI50,U-251,41 nM (active)
same,GI50,NCI-H460,71.6 nM (active)
same,GI50,PC-3,43.5 nM (active)
same,GI50,BT-549,60.3 nM (active)
